Publication PMC3765993, “The duration of sleep promoting efficacy by dual orexin receptor antagonists is dependent upon receptor occupancy threshold” (BMC Neuroscience, 2013)
Marks after values point to notes of the source that are not given here.

Columns and labels:
rats = assay: Rat telemetry polysomnography (time in active wake and sleep stages); assay type: in vivo; details: 100 mg/kg
Method: The mean time spent in sleep stages was determined in radio-telemetry-implanted mice, rats, dogs, and rhesus monkeys as first described by Renger and colleagues and subsequently by Winrow and colleagues with minor modifications. For baseline studies, recordings were taken continuously from unperturbed mice, rats, dogs, and monkeys for 6, 6, 10, or 5 days, respectively, and the mean time spent in all sleep stages in 30-min intervals were averaged and plotted onto a single 24-h period (Figure 1). Almorexant is a DORA [43] that was previously in clinical development for the treatment of insomnia. The clinical development program for almorexant was terminated in early 2011. […] In all cases, mean time in active wake, quiet wake, SWS, and REM sleep was determined for each 30-min interval for 3 days of each condition and averaged onto a single 24-h period. […] Statistical differences in mean time spent in active wake, quiet wake, SWS, and REM sleep between vehicle- and compound-treated groups at 30-min time points were determined by a linear mixed-effects model applied t-test.

[1] = Plasma and CSF compound levels in satellite rats; details: rat, in vivo, 100 mg/kg
Method: Separately, the relationship between OX2R occupancy relative to plasma exposure was determined by administering DORA-12 intravenously (i.v.) over a range of doses to transgenic rats expressing human OX2R to determine a full occupancy curve over a wide range of plasma concentrations in order to define the maximal occupancy against which raw occupancy values could be normalized. This relationship was then used to determine the OX2R occupancy in PSG experiments from measured plasma concentrations.
Occupancy of human OX2R in transgenic rats expressing the receptor via the rat enolase promoter was performed ex vivo in radioligand-binding-displacement assays essentially as previously described with minor modifications. To determine the relationship between OX2R occupancy for a given compound over a full range of plasma and CSF concentrations, hOX2R-expressing rats were dosed i.v. with compound. Immediately following 30 min of i.v. administration, animals were anesthetized, sacrificed, and CSF, blood, and brain tissue were harvested and frozen for analysis. Frozen tissue was weighed and thawed coincident with homogenization. The homogenate was pelleted at 21,000 × g for 1 min and the pellet was resuspended. […] Non-specific binding was determined by the addition of 1000-fold excess unlabeled ligand. Experimental (dosed)-specific binding was compared with control (vehicle-dosed) binding ([specific total counts minus specific experimental counts]/specific total counts × 100 = percent occupancy). Raw occupancy values determined in this manner over a range of plasma and CSF values were then used to construct a normalized curve where the theoretical maximum occupancy value was defined as 100% and occupancies relative to plasma or CSF values were fit to a […] (hyperbola) curve (GraphPad Prism, San Diego, CA, USA). […] In separate experiments, plasma, CSF, and brain tissue was collected at time points following dosing to directly measure compound levels and corresponding OX2R occupancies at these times. Resulting occupancy relative to measured plasma levels of compound was fit to a normalized binding curve as described previously.

OX2R [2] = target: T1, OX2R (Rattus norvegicus, UniProt P56719); design: method as in earlier work; details: ref 29 (Dugovic et al. 2009); cited from earlier work
T1 sequence (P56719 1-460): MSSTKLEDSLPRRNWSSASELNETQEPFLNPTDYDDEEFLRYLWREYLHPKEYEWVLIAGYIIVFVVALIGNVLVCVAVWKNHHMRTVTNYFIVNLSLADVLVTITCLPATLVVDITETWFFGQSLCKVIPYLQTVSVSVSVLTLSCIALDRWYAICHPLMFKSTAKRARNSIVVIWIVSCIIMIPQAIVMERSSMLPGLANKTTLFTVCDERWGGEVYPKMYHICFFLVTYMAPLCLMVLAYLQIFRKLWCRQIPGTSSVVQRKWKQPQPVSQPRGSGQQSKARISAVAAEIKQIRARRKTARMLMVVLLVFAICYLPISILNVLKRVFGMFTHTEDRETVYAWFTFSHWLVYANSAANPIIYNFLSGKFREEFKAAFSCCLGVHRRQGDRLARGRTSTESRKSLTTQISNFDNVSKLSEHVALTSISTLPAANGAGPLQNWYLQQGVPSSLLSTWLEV

Orexin 2 receptor = target: T2, Orexin 2 receptor (Homo sapiens, UniProt O43614); assay: Orexin 2 receptor binding kinetics
T2 sequence (O43614 1-444): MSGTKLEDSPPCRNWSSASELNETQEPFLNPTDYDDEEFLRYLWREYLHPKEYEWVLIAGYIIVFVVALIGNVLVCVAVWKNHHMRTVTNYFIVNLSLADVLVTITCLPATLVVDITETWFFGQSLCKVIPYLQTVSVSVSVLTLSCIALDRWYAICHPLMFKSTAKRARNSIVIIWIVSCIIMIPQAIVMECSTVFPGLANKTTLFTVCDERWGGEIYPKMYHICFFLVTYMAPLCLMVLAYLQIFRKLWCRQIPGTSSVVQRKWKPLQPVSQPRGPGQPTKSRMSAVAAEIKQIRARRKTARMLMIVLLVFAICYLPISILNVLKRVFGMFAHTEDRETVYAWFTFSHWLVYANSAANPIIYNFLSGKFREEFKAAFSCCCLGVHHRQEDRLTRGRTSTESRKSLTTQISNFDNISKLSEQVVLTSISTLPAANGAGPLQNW

OX2R [3] = target: T3, OX2R (Homo sapiens, UniProt O43614); assay: OX2R occupancy, ex vivo radioligand-binding displacement in transgenic rats expressing human OX2R; design: from tissue; host or cells: brain homogenate of transgenic rats expressing hOX2R under the rat enolase promoter; species or system transgenic rat; details: satellite rats, 100 mg/kg, treatment at onset of inactive phase
T3 sequence (O43614 1-444): T2 sequence (O43614 1-444)
Excerpt: Frozen tissue was weighed and thawed coincident with homogenization.

rhesus monkeys [4] = assay: Rhesus monkey polysomnography (active wake); assay type: in vivo; details: for Active wake late in the inactive phase and next morning (residual sleep effect): 10 mg/kg p.o. 2 h before lights out, 10 mg/kg
Method: Animals were fed on a calorie-controlled diet of laboratory chow supplemented with fruit and vegetables. Water was available ad libitum with the exception of those monkeys trained to perform cognitive tasks, for which access was restricted for up to 4 h prior to and during cognitive testing. Treatment occurred at 14:40 (Zeitgeber time [ZT] 10:10) in a balanced 1-day cross-over design: 1 day of drug or vehicle followed by 6 days of baseline followed by 1 day of vehicle or drug. Cognition tasks were scheduled for next-day evaluation as described below. Sleep/wake architecture was scored according to vigilance state (active wake, quiet wake, delta sleep I, delta sleep II, and REM sleep) at 30-minute intervals and analyzed as previously described. Spectral analysis of continuous EEG was quantified between vehicle and compound after binning continuous frequencies into canonical frequency bands (reported herein: Delta, 0.5 – 4 Hz; Theta, 4.0 – 7 Hz; Gamma, 35.0 – 100.0 Hz). qEEG values are spectral power (uV2) log transformed before analysis and averaged over 30-minute intervals, expressed as means +/− SEM, and compared with vehicle using a mixed-model ANOVA at each time point with random effects for subject and date within subject in the R statistical computing environment (cran.us.r-project.org; the R Foundation for Statistical Computing, Vienna, Austria) using a linear mixed effects model for significance testing.

rhesus monkeys [5] = assay: Monkey Delayed Match to Sample (DMS) task; assay type: in vivo; details: 10 mg/kg p.o., versus vehicle
Excerpt: All cognition testing occurred in the animal’s home cage equipped with a touchscreen. Each DMS trial was initiated with a single ‘sample’ image (150 × 200 pixels: 1.8 inches × 2.3 inches) in one of eight colors presented at the center of a touchscreen. Evaluation began when the monkey touched the sample image, at which point the screen became blank for a retention period. Following the retention period, four choice images (150 × 200 pixels) were presented, one in each corner of the screen. One of the four choice images matched the color of the sample image, whereas the three remaining ‘distractor’ images were drawn from the pool of remaining colors. A reinforcer was provided when the monkey touched the choice image that matched the color of the sample image. […] Test sessions comprised 96 trials or lasted for up to 45 min. […] Response latencies to sample and choice images were also recorded. Values reported reflect the proportion of correct responses collapsed over all retention intervals. Differences from vehicle were examined using repeated measures ANOVA.

rhesus monkeys [6] = assay: Monkey Serial Choice Reaction Time (SCRT) task; assay type: in vivo; details: 10 mg/kg p.o.; for Next-day attention (SCRT, correct responses to shortest cues), 16 h after dosing: versus vehicle, 10 mg/kg
Excerpt: Each SCRT trial was initiated with the appearance of 10 blue square ‘target’ images evenly distributed at 3-inch intervals around the perimeter of a touchscreen presented together with a centrally located circular ‘centering’ image (1.4 inch diameter circle). The task began with the monkey touching the centering image, which then turned gray. The monkey was then required to touch the centering image continuously throughout a variable pre-cue interval of 0.25-7.5 s. On completion of the pre-cue interval, one of the blue target images was cued by turning red for one of four cue durations before turning back to blue. To obtain a reward, the monkey was required to touch the target image that had been ‘cued’ red within a 5 s limited hold period. […] On completion of the trial, an inter-trial interval of 2 s was initiated prior to the next trial. […] If the monkey initiated a trial but removed its hand from the touchscreen prior to the appearance of the cue, the trial was terminated and the screen was blanked during a 2 s inter-trial interval. Sessions were terminated after 20 min. Cue location and duration were pseudo-randomly assigned. Cue duration and the target size were titrated for each subject on the basis of performance during previous baseline sessions to yield a performance of 60–80% correct responses for the trials of the shortest cue duration. The briefest cue duration varied from 0.04–0.1 s and the cues varied in size from 0.2–0.7 inches, although each cue had the same touch-sensitive area of 1.75 inches. Values reported in the current study reflect the proportion of correct responses to targets after cues of the shortest duration only.

[7] = rhesus monkeys, 10 mg/kg p.o.
rhesus monkeys [8] = system: rhesus monkeys; design: method as in PMID 23552372; details: 10 mg/kg, active-phase dosing, quantified over 2 h; cited from earlier work
in vivo = details: rhesus monkey, po, 10 mg/kg
rhesus monkeys [9] = details: sleep-promoting doses; cited from earlier work

CNC(=O)[C@@H](c1ccccc1)N1CCc2cc(OC)c(OC)cc2[C@@H]1CCc1ccc(C(F)(F)F)cc1 [Almorexant]
Duration of active wake reduction following treatment (rats; dosed during active phase): up to 7.5 h | Duration of active wake reduction following treatment (rats; inactive-phase treatment): up to 11 h | Levels within the CSF at 10 h [1]: undetectable | OX2R occupancy above which significant changes appeared (OX2R [2]): above 89% | OX2R occupancy at which efficacy was not observed (OX2R [2]): 78% | KON (association constant) (Orexin 2 receptor): 1.58e+07 mol⁻¹ min⁻¹ | Kd (Orexin 2 receptor): 0.048 nM | T1/2 OFF (half-life off-rates) (Orexin 2 receptor): 4.47 h | T1/2 ON (binding half-life) (Orexin 2 receptor; almorexant applied 3-fold above its Kd (value an underestimate)): 162^a min | koff (Orexin 2 receptor; read-out: KOFF (dissociation constant)): 4.49e-05 s⁻¹ | OX2R occupancy at 10 h (OX2R [3]): remained elevated

CN1CCN(C(=O)O[C@H]2c3nccnc3C(=O)N2c2ccc(Cl)cn2)CC1 [Eszopiclone]
Time for which reductions in active wake were detectable (rhesus monkeys [4]; 10 mg/kg p.o.): up to 6 h | Active wake late in the inactive phase and next morning (residual sleep effect) (rhesus monkeys [4]): did not demonstrate next-day sleep effects | Active wake late in the inactive phase and next morning (residual sleep effect) (rhesus monkeys [4]; listed as eszopiclone): no consistent attenuation of active wake | Next-day recognition memory (DMS), 14 h after dosing (rhesus monkeys [5]): did not demonstrate next-day sleep effects or memory impairment | Next-day recognition memory (DMS), 14 h after dosing (rhesus monkeys [5]; listed as eszopiclone): not | Time for which effects on attention were observed (rhesus monkeys [6]): up to 16 h | Next-day attention (SCRT, correct responses to shortest cues), 16 h after dosing (rhesus monkeys [6]): significantly impair attention | Next-day attention (SCRT, correct responses to shortest cues), 16 h after dosing (rhesus monkeys [6]; listed as eszopiclone): significant deficits | Time of plasma Cmax [7]: 0.5 h | Attenuation of active wake relative to vehicle (rhesus monkeys [8]): 55.0 min | Cmax (in vivo): 1680 nM | concentration at 17 h (in vivo): 535 nM | Cognitive assessment in DMS and SCRT tasks within 2 h following treatment (rhesus monkeys [9]): substantial deficits
